Assay results: US9980943B2, “Methods of treating muscular dystrophy” (BOARD OF REGENTS OF THE NEVADA SYSTEM OF HIGHER EDUCATION, …, priority 2013, dated 2018)

Legend:
Format in all cases: cell-based, mouse
[1] = test system: β-galactosidase in CMV-LacZ C2C12 myoblasts; experiment: CMV-LacZ secondary screen in C2C12 myoblasts (β-Gal stabilizing assay); conditions: CMV-LacZ C2C12 myoblasts
Outline: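 C2C12 myoblasts stably carrying a linearized CMV-driven LacZ construct, clone chosen by β-gal level in the myoblast FDG assay. Compounds tested in 96-well dose-response at 0.5, 1, 5, 10, 20 and 40 μM, N=2 replicates per point, to detect β-gal stabilization.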

[2] = test system: α7 integrin (LacZ reporter in α7+/LacZ myotubes); experiment: Myotube α7 integrin FDG assay (Burkin assay in myotubes, 96-well); conditions: myotubes
[3] = test system: β-galactosidase in CMV-LacZ C2C12 myotubes; experiment: CMV-LacZ secondary screen in C2C12 myotubes (β-Gal stabilizing assay); conditions: C2C12 CMV-LacZ myotubes, fold relative to DMSO
Outline: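 CMV-LacZ C2C12 line (clonal, FDG-screened); myoblasts/myotubes dosed 0.5–40 μM (0.5, 1, 5, 10, 20, 40 μM); n=2 per point; β-gal stabilization read-out.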

[4] = test system: α7 integrin (LacZ reporter in α7βgal+/− myoblasts); experiment: Myoblast α7+/LacZ integrin FDG assay (Burkin assay in myoblasts, 96-well); conditions: α7+/LacZ myoblasts, 96-well

## O=CN1CCN(C(=O)CC(c2ccccc2)c2cc(Br)ccc2O)CC1 (stereo not drawn) [MLS001000874-01]
[1]; 0.5 uM
  CMV-LACZ in Myoblasts (β-galactosidase activity relative to DMSO): 1.1029
[1]; 1 uM
  CMV-LACZ in Myoblasts (β-galactosidase activity relative to DMSO): 1.0442
[1]; 5 uM
  CMV-LACZ in Myoblasts (β-galactosidase activity relative to DMSO): 0.8886
[1]; 10 uM
  CMV-LACZ in Myoblasts (β-galactosidase activity relative to DMSO): 1.0295
[1]; 20 uM
  CMV-LACZ in Myoblasts (β-galactosidase activity relative to DMSO): 1.0556
[1]; 40 uM
  CMV-LACZ in Myoblasts (β-galactosidase activity relative to DMSO): 1.1100
[2]; 0.5 uM
  Burkin Assay in Myotubes, α7 integrin LacZ reporter signal relative to DMSO: 0.9357
[2]; 1 uM
  Burkin Assay in Myotubes, α7 integrin LacZ reporter signal relative to DMSO: 0.8646
[2]; 5 uM
  Burkin Assay in Myotubes, α7 integrin LacZ reporter signal relative to DMSO: 1.0731
[2]; 10 uM
  Burkin Assay in Myotubes, α7 integrin LacZ reporter signal relative to DMSO: 0.9216
[2]; 20 uM
  Burkin Assay in Myotubes, α7 integrin LacZ reporter signal relative to DMSO: 0.9266
[2]; 40 uM
  Burkin Assay in Myotubes, α7 integrin LacZ reporter signal relative to DMSO: 0.8181
[3]; 0.5 uM
  CMV-LACZ in Myotubes, signal relative to DMSO: 1.0943
[3]; 1 uM
  CMV-LACZ in Myotubes, signal relative to DMSO: 1.1590
[3]; 5 uM
  CMV-LACZ in Myotubes, signal relative to DMSO: 1.1124
[3]; 10 uM
  CMV-LACZ in Myotubes, signal relative to DMSO: 0.9960
[3]; 20 uM
  CMV-LACZ in Myotubes, signal relative to DMSO: 1.1484
[3]; 40 uM
  CMV-LACZ in Myotubes, signal relative to DMSO: 1.0947
[4]; 0.5 uM
  Burkin Assay in Myoblasts, signal relative to DMSO: 1.175
[4]; 1 uM
  Burkin Assay in Myoblasts, signal relative to DMSO: 1.033
[4]; 5 uM
  Burkin Assay in Myoblasts, signal relative to DMSO: 1.077
[4]; 10 uM
  Burkin Assay in Myoblasts, signal relative to DMSO: 0.8677
[4]; 20 uM
  Burkin Assay in Myoblasts, signal relative to DMSO: 1.007
[4]; 40 uM
  Burkin Assay in Myoblasts, signal relative to DMSO: 0.9545

## O=C(CCc1ccccc1)c1nnc(-c2ccccc2)o1 [MLS001004364-01]
[1]; 0.5 uM
  CMV-LACZ in Myoblasts (β-galactosidase activity relative to DMSO): 0.9117
[1]; 1 uM
  CMV-LACZ in Myoblasts (β-galactosidase activity relative to DMSO): 1.0643
[1]; 5 uM
  CMV-LACZ in Myoblasts (β-galactosidase activity relative to DMSO): 1.0438
[1]; 10 uM
  CMV-LACZ in Myoblasts (β-galactosidase activity relative to DMSO): 0.9011
[1]; 20 uM
  CMV-LACZ in Myoblasts (β-galactosidase activity relative to DMSO): 1.0263
[1]; 40 uM
  CMV-LACZ in Myoblasts (β-galactosidase activity relative to DMSO): 1.0441
[2]; 0.5 uM
  Burkin Assay in Myotubes, α7 integrin LacZ reporter signal relative to DMSO: 1.093
[2]; 1 uM
  Burkin Assay in Myotubes, α7 integrin LacZ reporter signal relative to DMSO: 1.105
[2]; 5 uM
  Burkin Assay in Myotubes, α7 integrin LacZ reporter signal relative to DMSO: 0.9047
[2]; 10 uM
  Burkin Assay in Myotubes, α7 integrin LacZ reporter signal relative to DMSO: 0.8617
[2]; 20 uM
  Burkin Assay in Myotubes, α7 integrin LacZ reporter signal relative to DMSO: 0.8875
[2]; 40 uM
  Burkin Assay in Myotubes, α7 integrin LacZ reporter signal relative to DMSO: 1.055
[3]; 0.5 uM
  CMV-LACZ in Myotubes, signal relative to DMSO: 0.9210
[3]; 1 uM
  CMV-LACZ in Myotubes, signal relative to DMSO: 1.0095
[3]; 5 uM
  CMV-LACZ in Myotubes, signal relative to DMSO: 0.8978
[3]; 10 uM
  CMV-LACZ in Myotubes, signal relative to DMSO: 0.9480
[3]; 20 uM
  CMV-LACZ in Myotubes, signal relative to DMSO: 1.2824
[3]; 40 uM
  CMV-LACZ in Myotubes, signal relative to DMSO: 1.1824
[4]; 0.5 uM
  Burkin Assay in Myoblasts, signal relative to DMSO: 1.0917
[4]; 1 uM
  Burkin Assay in Myoblasts, signal relative to DMSO: 1.105
[4]; 5 uM
  Burkin Assay in Myoblasts, signal relative to DMSO: 1.035
[4]; 10 uM
  Burkin Assay in Myoblasts, signal relative to DMSO: 0.9531
[4]; 20 uM
  Burkin Assay in Myoblasts, signal relative to DMSO: 0.9729
[4]; 40 uM
  Burkin Assay in Myoblasts, signal relative to DMSO: 0.9374

## Br.COc1ccc(C(=O)CN2CCCCC2)cc1 [MLS001004864-01]
[1]; 0.5 uM
  CMV-LACZ in Myoblasts (β-galactosidase activity relative to DMSO): 1.2650
[1]; 1 uM
  CMV-LACZ in Myoblasts (β-galactosidase activity relative to DMSO): 0.9288
[1]; 5 uM
  CMV-LACZ in Myoblasts (β-galactosidase activity relative to DMSO): 1.2276
[1]; 10 uM
  CMV-LACZ in Myoblasts (β-galactosidase activity relative to DMSO): 1.0417
[1]; 20 uM
  CMV-LACZ in Myoblasts (β-galactosidase activity relative to DMSO): 1.2930
[1]; 40 uM
  CMV-LACZ in Myoblasts (β-galactosidase activity relative to DMSO): 0.9933
[2]; 0.5 uM
  Burkin Assay in Myotubes, α7 integrin LacZ reporter signal relative to DMSO: 0.949
[2]; 1 uM
  Burkin Assay in Myotubes, α7 integrin LacZ reporter signal relative to DMSO: 1.025
[2]; 5 uM
  Burkin Assay in Myotubes, α7 integrin LacZ reporter signal relative to DMSO: 0.9784
[2]; 10 uM
  Burkin Assay in Myotubes, α7 integrin LacZ reporter signal relative to DMSO: 0.9618
[2]; 20 uM
  Burkin Assay in Myotubes, α7 integrin LacZ reporter signal relative to DMSO: 0.6075
[2]; 40 uM
  Burkin Assay in Myotubes, α7 integrin LacZ reporter signal relative to DMSO: 0.376
[3]; 0.5 uM
  CMV-LACZ in Myotubes, signal relative to DMSO: 0.9657
[3]; 1 uM
  CMV-LACZ in Myotubes, signal relative to DMSO: 0.9610
[3]; 5 uM
  CMV-LACZ in Myotubes, signal relative to DMSO: 1.0697
[3]; 10 uM
  CMV-LACZ in Myotubes, signal relative to DMSO: 0.9501
[3]; 20 uM
  CMV-LACZ in Myotubes, signal relative to DMSO: 0.9653
[3]; 40 uM
  CMV-LACZ in Myotubes, signal relative to DMSO: 0.8884
[4]; 0.5 uM
  Burkin Assay in Myoblasts, signal relative to DMSO: 1.1396
[4]; 1 uM
  Burkin Assay in Myoblasts, signal relative to DMSO: 1.193
[4]; 5 uM
  Burkin Assay in Myoblasts, signal relative to DMSO: 1.109
[4]; 10 uM
  Burkin Assay in Myoblasts, signal relative to DMSO: 1.023
[4]; 20 uM
  Burkin Assay in Myoblasts, signal relative to DMSO: 1.105
[4]; 40 uM
  Burkin Assay in Myoblasts, signal relative to DMSO: 0.8883
